Results reported in ChEMBL document CHEMBL1201862, “PubChem BioAssay data set” (2004).
Calls of active or inactive are those of the source.

Assays:
[1] = inhibitors of intracellular T. cruzi replication, confirmation, NIH3T3 host cells, beta-gal luminescence (AID 2044); assay type: functional, cell-based;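 note: intracellular parasites grown in NIH/3T3 mouse fibroblasts as host cells; luminescent beta-galactosidase reporter signal from transgenic T. cruzi replicating inside host cells; inhibitors lower the luminescence signal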
[2] = cytotoxicity toward NIH3T3 fibroblasts, dose response, counter-screen, cell-based, ATP luminescence, mouse fibroblasts (AID 2010); assay type: functional;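 note: cells exposed to compound for about 90 hours before reading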
[3] = cytotoxicity in HEK-293T cells, dose response, cytotoxicity control for TCR NF-kB inhibitor project, luminescence, T-cell screen hits (AID 489026); assay type: functional, cell-based;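 note: cells exposed to compound about 14 hours before the viability readout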
Protein Wnt-3a = Protein Wnt-3a (Mus musculus, UniProt P27467); assay: Wnt3a-driven reporter signaling inhibition, dose response, selectivity assay for Gli-SUFU antagonist project, Wnt-LIGHT cells, luminescence (AID 651570); assay type: functional; details: read-out: IC50_Mean;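 note: Wnt-LIGHT reporter cells stimulated with conditioned medium from Wnt3a-producing cells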
Protein Wnt-3a, sequence (P27467 whole entry): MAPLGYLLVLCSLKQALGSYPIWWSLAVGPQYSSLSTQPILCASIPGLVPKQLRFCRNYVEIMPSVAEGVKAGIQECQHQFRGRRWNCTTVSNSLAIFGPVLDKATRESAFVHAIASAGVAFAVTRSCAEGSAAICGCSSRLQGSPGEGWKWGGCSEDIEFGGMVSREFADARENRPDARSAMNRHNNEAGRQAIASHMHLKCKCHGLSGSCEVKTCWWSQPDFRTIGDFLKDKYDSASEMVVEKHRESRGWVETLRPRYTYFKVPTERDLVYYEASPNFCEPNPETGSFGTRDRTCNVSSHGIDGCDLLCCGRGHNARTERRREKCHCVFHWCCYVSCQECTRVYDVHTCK

Vero = assay: cells; assay type: functional; details: Chlorocebus sabaeus
[4] = biological target: T1, E3 ubiquitin-protein ligase XIAP (Homo sapiens, UniProt P98170); assay: Counter Screen using XIAP-Bir3 for Chemical Antagonists of Bir1/2 domains of IAP-family anti-apoptotic proteins. [Related pubchem assays (depositor defined):AID1018, AID1449, AID1514, AID1638, AID1749, AID1750, AID488957, AID488963]
T1 sequence (P98170 whole entry): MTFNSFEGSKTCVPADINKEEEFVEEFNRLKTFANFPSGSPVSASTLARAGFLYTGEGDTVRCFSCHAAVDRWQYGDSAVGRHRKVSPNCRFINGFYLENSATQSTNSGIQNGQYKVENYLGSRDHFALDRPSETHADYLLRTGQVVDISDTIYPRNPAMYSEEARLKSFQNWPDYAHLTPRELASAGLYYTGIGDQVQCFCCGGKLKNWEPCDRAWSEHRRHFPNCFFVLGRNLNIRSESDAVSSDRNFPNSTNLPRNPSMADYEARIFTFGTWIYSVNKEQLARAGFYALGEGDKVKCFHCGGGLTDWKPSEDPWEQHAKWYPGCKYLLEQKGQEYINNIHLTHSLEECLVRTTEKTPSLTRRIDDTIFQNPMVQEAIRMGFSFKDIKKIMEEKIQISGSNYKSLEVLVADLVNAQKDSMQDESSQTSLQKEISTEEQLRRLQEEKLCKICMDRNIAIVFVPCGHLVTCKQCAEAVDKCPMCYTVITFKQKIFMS

[5] = biological target: T1, E3 ubiquitin-protein ligase XIAP; assay: XIAP antagonists, biochemical, IAP family, fluorescence polarization (AID 1018); assay type: functional
[6] = biological target: Dual specificity tyrosine-phosphorylation-regulated kinase 1A (Rattus norvegicus, UniProt Q63470); assay type: biochemical, Homo sapiens
Melanocortin receptor 4 = Melanocortin receptor 4 (Homo sapiens, UniProt P32245); assay: MC4R antagonist potency on cAMP, dose response, cell-based, TR-FRET, biased antagonists (AID 602298); assay type: functional;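 note: antagonist potency against agonist-stimulated cAMP production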
Melanocortin receptor 4, sequence (P32245 whole entry): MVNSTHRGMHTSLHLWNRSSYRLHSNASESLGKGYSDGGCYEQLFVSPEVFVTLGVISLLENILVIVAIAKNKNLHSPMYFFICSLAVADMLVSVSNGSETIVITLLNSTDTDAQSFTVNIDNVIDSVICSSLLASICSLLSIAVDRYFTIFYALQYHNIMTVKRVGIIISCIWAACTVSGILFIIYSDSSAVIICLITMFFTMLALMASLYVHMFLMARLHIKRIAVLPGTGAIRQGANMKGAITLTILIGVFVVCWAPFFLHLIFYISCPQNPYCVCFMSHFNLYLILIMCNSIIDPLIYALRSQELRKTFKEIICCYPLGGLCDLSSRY

[7] = nonselective inhibitors of cellular cAMP signaling, dose response, counter-screen for MC4R biased antagonist project, cell-based, TR-FRET cAMP detection (AID 602305); assay type: functional;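 note: U2OS cells stimulated with forskolin near its EC80 as the cAMP inducer; potency is for inhibition of forskolin-stimulated cAMP signaling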
[8] = biological target: Glucose-6-phosphate 1-dehydrogenase (Homo sapiens, UniProt P11413); assay: human G6PD enzyme inhibitors, dose response, selectivity assay for P. falciparum G6PD inhibitor project, biochemical, fluorescence (AID 504792); assay type: functional
Glucose-6-phosphate 1-dehydrogenase, sequence (P11413 whole entry): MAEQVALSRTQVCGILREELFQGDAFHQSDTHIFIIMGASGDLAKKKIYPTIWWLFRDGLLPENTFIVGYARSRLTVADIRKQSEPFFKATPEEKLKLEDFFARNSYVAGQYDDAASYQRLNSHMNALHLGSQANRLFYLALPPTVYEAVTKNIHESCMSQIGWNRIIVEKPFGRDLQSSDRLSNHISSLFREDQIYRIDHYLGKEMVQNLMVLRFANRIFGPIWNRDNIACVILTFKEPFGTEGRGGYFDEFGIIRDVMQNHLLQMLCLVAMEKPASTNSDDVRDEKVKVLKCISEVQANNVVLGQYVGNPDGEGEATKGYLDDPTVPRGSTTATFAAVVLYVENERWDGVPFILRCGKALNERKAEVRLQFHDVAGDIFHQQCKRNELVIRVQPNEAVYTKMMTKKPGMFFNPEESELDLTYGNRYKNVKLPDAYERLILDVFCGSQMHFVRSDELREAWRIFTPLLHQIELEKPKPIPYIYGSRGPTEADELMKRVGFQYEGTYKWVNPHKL

BJ [9] = assay: cytotoxicity toward BJ-TERT fibroblasts, dose response, cell-based, RAS-independent, luminescence (AID 1933); assay type: functional; details: Homo sapiens
BJ [10] = assay: cells; assay type: functional, cell-based; details: Homo sapiens
BJ [11] = assay: cytotoxicity toward BJ-TERT-LT-ST fibroblasts, dose response, cell-based, RAS-independent, luminescence (AID 1935); assay type: functional; details: Homo sapiens;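 note: BJ fibroblasts immortalized with TERT plus LT and ST oncogenes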
[12] = cytotoxicity toward DRD oncogenic fibroblasts, dose response, cell-based, non-viral oncogenic, luminescence (AID 1934); assay type: functional; details: Homo sapiens
BJ [13] = assay: cytotoxicity toward Ras-transformed BJeLR fibroblasts, dose response, cell-based, alamar blue fluorescence, cherrypicked samples (AID 2631); assay type: functional; details: Homo sapiens;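 note: confirmatory dose-response assay in RAS-dependent BJ fibroblasts engineered with TERT, LT and ST, with cytotoxicity read by fluorescence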
INS1 = assay: beta cell apoptosis inhibitors, cytokine rescue, dose response, luminescence, retest (AID 449756); assay type: functional, cell-based; details: Rattus norvegicus;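 note: cell death triggered by IL-1 beta plus TNF-alpha plus IFN-gamma mixture; protective hits raise ATP signal compared with cytokine alone wells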
[14] = THP-1 cell cytotoxicity, dose response, cytotoxicity control for non-replicating M. tuberculosis project (AID 489025); assay type: functional
cells = assay type: functional
[15] = biological target: T2, Short transient receptor potential channel 4 (Mus musculus, UniProt Q9QUQ5); assay: mouse TRPC4 channel inhibitors, dose response, cell-based, HEK293 TRPC4/mu-opioid, Fluo-4 calcium (AID 434942); assay type: functional;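 note: potency of inhibitors blocking the TRPC4 calcium response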
T2 sequence (Q9QUQ5 whole entry): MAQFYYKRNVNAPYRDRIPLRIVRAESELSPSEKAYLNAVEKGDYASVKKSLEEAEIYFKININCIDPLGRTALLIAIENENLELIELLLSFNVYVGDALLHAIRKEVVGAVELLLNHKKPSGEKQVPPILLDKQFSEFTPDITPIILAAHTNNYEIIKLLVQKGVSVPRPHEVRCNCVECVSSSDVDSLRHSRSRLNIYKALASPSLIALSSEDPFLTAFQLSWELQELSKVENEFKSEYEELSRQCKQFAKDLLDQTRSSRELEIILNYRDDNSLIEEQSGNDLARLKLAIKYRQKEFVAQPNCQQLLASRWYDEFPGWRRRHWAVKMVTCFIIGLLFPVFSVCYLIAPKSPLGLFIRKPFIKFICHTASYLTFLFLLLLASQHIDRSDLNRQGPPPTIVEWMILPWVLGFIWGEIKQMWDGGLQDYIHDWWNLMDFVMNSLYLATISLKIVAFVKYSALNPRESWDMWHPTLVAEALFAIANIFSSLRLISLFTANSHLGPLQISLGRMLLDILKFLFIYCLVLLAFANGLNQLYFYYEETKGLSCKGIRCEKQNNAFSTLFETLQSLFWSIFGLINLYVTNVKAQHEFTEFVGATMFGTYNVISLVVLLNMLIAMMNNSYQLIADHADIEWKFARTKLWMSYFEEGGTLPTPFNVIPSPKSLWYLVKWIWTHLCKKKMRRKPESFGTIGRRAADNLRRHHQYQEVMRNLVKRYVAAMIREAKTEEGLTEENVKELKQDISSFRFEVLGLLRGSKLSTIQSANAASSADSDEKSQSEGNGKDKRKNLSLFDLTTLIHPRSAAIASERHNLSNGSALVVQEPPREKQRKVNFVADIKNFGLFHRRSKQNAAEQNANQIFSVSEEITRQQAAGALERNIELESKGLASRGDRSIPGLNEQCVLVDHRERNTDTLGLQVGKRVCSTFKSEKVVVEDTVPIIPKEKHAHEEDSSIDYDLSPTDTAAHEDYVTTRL

[16] = biological target: FAD-linked sulfhydryl oxidase ALR (Homo sapiens, UniProt P55789); assay: inhibitors of human ALR sulfhydryl oxidase, dose response, biochemical, H2O2 detection, luminescence, cherry-pick (AID 493248)
FAD-linked sulfhydryl oxidase ALR, sequence (P55789 whole entry): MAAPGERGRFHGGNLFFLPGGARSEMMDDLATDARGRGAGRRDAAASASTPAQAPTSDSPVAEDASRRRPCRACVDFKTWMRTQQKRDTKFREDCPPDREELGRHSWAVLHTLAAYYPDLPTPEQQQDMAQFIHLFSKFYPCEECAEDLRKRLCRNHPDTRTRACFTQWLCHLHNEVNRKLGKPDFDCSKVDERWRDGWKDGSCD

[17] = biological target: T3, Rac GTPase-activating protein 1 (Homo sapiens, UniProt Q9H0H5); assay: MgcRacGAP GTPase-activating activity inhibitors, confirmation, biochemical, ADP Hunter fluorescence, primary and confirmatory (AID 624330); assay type: functional
T3 sequence (Q9H0H5 whole entry): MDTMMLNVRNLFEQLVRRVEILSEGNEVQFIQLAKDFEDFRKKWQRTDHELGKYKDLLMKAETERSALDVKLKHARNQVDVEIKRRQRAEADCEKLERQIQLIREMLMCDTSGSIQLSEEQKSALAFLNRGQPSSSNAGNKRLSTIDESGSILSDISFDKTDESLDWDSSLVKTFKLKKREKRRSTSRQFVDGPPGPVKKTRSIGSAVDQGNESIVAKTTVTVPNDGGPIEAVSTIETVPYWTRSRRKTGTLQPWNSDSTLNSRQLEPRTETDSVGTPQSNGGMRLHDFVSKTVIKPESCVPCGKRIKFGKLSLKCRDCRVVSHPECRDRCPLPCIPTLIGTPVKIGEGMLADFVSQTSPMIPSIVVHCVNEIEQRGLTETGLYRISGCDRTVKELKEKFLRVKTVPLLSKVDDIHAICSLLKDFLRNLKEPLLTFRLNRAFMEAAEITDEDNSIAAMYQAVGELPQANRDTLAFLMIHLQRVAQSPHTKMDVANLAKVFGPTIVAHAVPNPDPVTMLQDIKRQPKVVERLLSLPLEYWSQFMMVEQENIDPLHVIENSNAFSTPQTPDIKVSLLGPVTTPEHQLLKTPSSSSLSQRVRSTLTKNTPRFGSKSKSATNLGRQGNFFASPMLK

HEK293 = assay: inhibitors of LMP1-driven NF-kB reporter, dose response, cell-based, HEK293, luciferase, cherry-pick (AID 588343); assay type: functional; details: Homo sapiens
[18] = biological target: T4, RNA-binding protein pos-1 (Caenorhabditis elegans, UniProt G5EF15); assay: inhibitors of POS-1/mex-3 RNA binding, dose response, biochemical, fluorescence polarization (AID 1964);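 note: purified POS-1 fused to maltose binding protein made in E. coli; potency of compounds blocking POS-1 binding to fluorescent RNA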
T4 sequence (G5EF15 whole entry): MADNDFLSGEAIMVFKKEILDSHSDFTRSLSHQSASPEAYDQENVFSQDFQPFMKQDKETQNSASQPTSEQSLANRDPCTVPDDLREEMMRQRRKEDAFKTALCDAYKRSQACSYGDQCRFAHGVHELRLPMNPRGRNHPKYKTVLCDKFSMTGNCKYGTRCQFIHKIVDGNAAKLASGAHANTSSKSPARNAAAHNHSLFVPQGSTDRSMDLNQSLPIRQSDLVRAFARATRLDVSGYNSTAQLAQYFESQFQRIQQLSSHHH

[19] = Luminescence Cell-Based Dose Response HTS to Identify Inhibitors of 5'UTR Stem-Loop Driven Prion Protein mRNA Translation in H4 Neuroglioblastoma Cells. [Related pubchem assays: 1827 (Project Summary), 1813 (Primary HTS)]; assay type: functional
[20] = biological target: T5, Zinc finger protein mex-5 (Caenorhabditis elegans, UniProt Q9XUB2); assay: MEX-5/TCR-2 RNA interaction inhibitors, dose response, biochemical, C. elegans, fluorescence polarization (AID 1960)
T5 sequence (Q9XUB2 whole entry): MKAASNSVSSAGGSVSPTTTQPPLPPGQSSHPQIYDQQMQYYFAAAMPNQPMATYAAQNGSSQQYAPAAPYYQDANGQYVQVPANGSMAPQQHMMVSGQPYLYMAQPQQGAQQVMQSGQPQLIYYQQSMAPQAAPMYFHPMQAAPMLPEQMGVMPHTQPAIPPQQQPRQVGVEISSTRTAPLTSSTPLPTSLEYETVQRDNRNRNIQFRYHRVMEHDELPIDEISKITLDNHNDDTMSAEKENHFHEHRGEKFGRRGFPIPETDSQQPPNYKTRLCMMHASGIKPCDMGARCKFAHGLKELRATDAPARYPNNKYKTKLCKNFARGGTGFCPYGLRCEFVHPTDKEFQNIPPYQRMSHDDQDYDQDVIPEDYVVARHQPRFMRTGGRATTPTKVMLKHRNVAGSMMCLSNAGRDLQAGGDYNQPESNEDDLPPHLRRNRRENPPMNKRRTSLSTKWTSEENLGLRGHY

[21] = inhibitors of SNCA 5'UTR-driven reporter translation, confirmation, H4 neuroglioma cells, luminescence (AID 1988); assay type: functional, cell-based
[22] = biological target: Luciferin 4-monooxygenase (Photinus pyralis, UniProt P08659); assay: firefly luciferase enzyme inhibitors, dose response, biochemical, luminescence (AID 1891)
Luciferin 4-monooxygenase, sequence (P08659 whole entry): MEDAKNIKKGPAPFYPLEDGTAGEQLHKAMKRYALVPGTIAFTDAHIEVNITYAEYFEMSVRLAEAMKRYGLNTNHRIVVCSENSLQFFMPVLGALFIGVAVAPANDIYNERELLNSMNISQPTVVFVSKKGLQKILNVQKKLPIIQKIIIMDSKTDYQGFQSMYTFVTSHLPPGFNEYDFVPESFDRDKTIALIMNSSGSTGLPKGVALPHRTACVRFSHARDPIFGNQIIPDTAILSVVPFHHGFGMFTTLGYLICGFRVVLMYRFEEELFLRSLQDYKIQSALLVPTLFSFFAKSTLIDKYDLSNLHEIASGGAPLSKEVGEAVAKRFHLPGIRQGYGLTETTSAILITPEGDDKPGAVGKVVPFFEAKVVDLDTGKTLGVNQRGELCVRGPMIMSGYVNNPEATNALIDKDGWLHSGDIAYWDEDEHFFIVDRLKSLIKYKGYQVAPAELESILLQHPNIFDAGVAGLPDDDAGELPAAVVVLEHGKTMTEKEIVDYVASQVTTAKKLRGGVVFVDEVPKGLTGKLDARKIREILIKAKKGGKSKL

[23] = Luminescence Cell-Based Dose Confirmation HTS to Identify Inhibitors of Platelet Dense Granule Release. [Related pubchem assays: 1663 (Primary HTS), 1678 (Summary of Project)]; assay type: functional

## CCCCCCCOc1ccc(OC(=O)c2cccnc2)cc1
[1]
  EC50: 1.89 µM (active)
[2]
  EC50: 4.45 µM (active)
[3]
  IC50: > 80 µM (inactive)

## COC(=O)c1cc(S(=O)(=O)N2CCC(c3cc(OC)ccc3OC)C2)c[nH]1 (configuration not stated)
Protein Wnt-3a
  IC50: 7.87 µM (active)

## CN1C(=O)/C(=C\c2ccc(N3CCCCCC3)cc2)C(=O)NC1=S
Vero
  CC50: 17.9 µM (active)

## CCOC(=O)c1[nH]c2c(c1C)C(=O)CC(c1ccc(F)cc1)C2 (configuration not stated)
[3]
  IC50: > 80 µM (inactive)

## CCOC(=O)CCc1c(C)c2ccc(O)cc2oc1=O
[4]
  IC50: > 100 µM (inactive)
[5]
  IC50: > 100 µM (not active)

## CSc1cccc(NC(=O)c2c(Cl)cnn2C)c1
[6]
  AC50: 7.08 µM (active)

## COC(=O)c1c(NC(=O)CC2SCC(C(=O)OC)NC2=O)sc2c1CCCC2 (configuration not stated)
Melanocortin receptor 4
  IC50: > 64.6 µM (inactive)
[7]
  IC50: > 64.6 µM (inactive)

## CCN(CC)C(=O)c1c(C)[nH]c(=S)c(C#N)c1-c1ccco1
[8]
  IC50: > 80 µM (inactive)

## O=C(NCc1cccnc1)c1ccc(-c2cc3ccccc3oc2=O)cc1
BJ [9]
  EC50: 22.6 µM (active)
BJ [10]
  EC50: 11.8 µM (inconclusive)
BJ [11]
  EC50: 3.16 µM (active)
[12]
  EC50: > 150 µM (not active)
BJ [13]
  EC50: 6.49 µM (active)
INS1
  AC50: 3.61 µM (active)

## O=S1(=O)CC2N=C(N(Cc3c(F)cccc3Cl)c3ccccc3F)SC2C1 (configuration not stated)
[4]
  IC50: > 100 µM (inactive)
[5]
  IC50: > 100 µM (not active)

## COc1ccc(C(=O)Nc2nc(-c3cccs3)c(NC(C)=O)s2)cc1
[4]
  IC50: > 100 µM (inactive)
[5]
  IC50: > 100 µM (not active)

## COc1cccc2[nH]c3c(Cl)ncnc3c12
[14]
  CC50: 33.9 µM (active)
cells
  IC50: > 50 µM (active)
Melanocortin receptor 4
  IC50: > 64.6 µM (inactive)
[7]
  IC50: > 64.6 µM (inactive)

## COc1cc(/C=C2\SC(N3CCC(C)CC3)=NC2=O)ccc1O
[15]
  EC50: 3.35 µM (active)
[16]
  AC50: 0.929 µM (active)
[6]
  AC50: 2.68 µM (active)
[17]
  IC50: 16.3 µM (active)

## O=C(CCl)N(CCCNC(=O)C(F)(F)F)c1ccc([N+](=O)[O-])cc1
BJ [9]
  EC50: 2.53 µM (inconclusive)
BJ [10]
  EC50: 4.39 µM (active)
BJ [11]
  EC50: 11.6 µM (inconclusive)
[12]
  EC50: 4.66 µM (active)
BJ [13]
  EC50: 0.995 µM (active)

## COc1ccc(-n2c(SC3CCOC3=O)nc3ccccc32)cc1 (configuration not stated)
Melanocortin receptor 4
  IC50: > 64.6 µM (inactive)
[7]
  IC50: > 64.6 µM (inactive)

## Cc1nn(-c2ccc(NC(=O)c3ccncc3)cc2)c(C)c1Cl
Protein Wnt-3a
  IC50: 3 µM (active)

## C/C(=C\[C@@H](NP(=O)(c1ccccc1)c1ccccc1)c1ccccc1)CO[Si](c1ccccc1)(c1ccccc1)C(C)(C)C
Vero
  CC50: > 25 µM (active)

## COc1cccc(C(=O)N2CCN(c3nc4cc(C)cc(C)c4cc3C#N)CC2)c1
HEK293
  AC50: 194 µM (active)

## C(=N\Nc1nc2ccccc2[nH]1)/c1ccccn1
[18]
  EC50: 72.9 µM (active)
[19]
  EC50: 1.29 µM (active)
[20]
  EC50: 41.7 µM (active)
[21]
  EC50: 5.82 µM (active)
[22]
  EC50: 1.16 µM (active)
[23]
  EC50: 4.15 µM (active)
[8]
  IC50: > 80 µM (inactive)
BJ [13]
  EC50: 1.99 µM (active)

## O=[N+]([O-])c1ccc(O)c(/C=N/n2c(S)nnc2-c2ccccc2)c1
[6]
  AC50: 7.9 µM (active)

## CCn1/c(=N/c2ccc(N3CCOCC3)cc2)ccc2ccccc21
[4]
  IC50: > 100 µM (inactive)
[5]
  IC50: > 100 µM (not active)

## Cc1cc(C)nc(/N=C(\N)NCCc2ccccc2)n1
[8]
  IC50: > 80 µM (inactive)
